Results published in US20200375929A1, “METHODS AND COMPOSITIONS FOR THE TREATMENT OF DISEASES ASSOCIATED WITH CANCER, INFLAMMATION, OR IMMUNE RESPONSE” (Washington University, priority 2017, published 2020).
Entries after “also recorded” stand apart in the source; their conditions may differ.

Assays:
[1] = tested on: IκBζ; test: LPS-induced Ikb-ζ protein induction in BMDMs (western blot); assay type: cell-based, mouse
Experimental: (§1) BMDM were prepared from 6- to 12-week-old mice as described 1 and cultured in RMPI-1640 medium supplemented with 10% fetal bovine serum (FBS), 2 mM L-glutamine, and 100 U/mL penicillin-streptomycin and mouse recombinant M-CSF ([…], Peprotech). For experiments, cells were seeded at concentration 10^6 cells/mL in tissue culture plates of various formats. The cells were treated with DI (250 μM (unless stated otherwise), cat #592498, Sigma), DMF (50 μM (unless stated otherwise), cat #242926, Sigma), 3-(ethoxycarbonyl)but-3-enoic acid (3MI, 5 μM, Aris Pharmaceuticals Inc.), 4-ethoxy-2-methylene-4-oxobutanoic acid (MI, Aris Pharmaceuticals Inc.) for 12 h and activated with lipopolysaccharide (LPS; 100 ng/mL; E. coli 0111:B4, Sigma) for 1 h or as indicated. In some experiments cells were stimulated with combination of LPS (20 ng/mL) and IFN-γ (50 ng/mL; Peprotech). In some experiments cells were treated with α-tocopherol (AT, 10 μM; Sigma), MitoTEMPO (MT, 500 μM; Sigma), N-acetylcysteine (NAC, 1 mM, Sigma), ethylester of GSH (EtGSH; 1 mM, Santa Cruz) or buthionene sulfoximine (BSO, 500 μM, Sigma) alone or in combination with DI for 12 h. In some experiments BMDMs were treated with DI for 12 h and bafilomycin A (BafA, 100 nM, Sigma) or MG132 (10 μM, Selleckchem) were added 30 min before subsequent LPS stimulation.
(§2) Cells were lysed in RIPA Lysis Buffer System (Santa Cruz) and heat-denatured at 95° C. for 5 min in reducing sample buffer (BioRad). Proteins were separated on 4%-20% polyacrylamide gradient gels (BioRad) and transferred onto 0.45 μm pore size PVDF membranes (Millipore). Non-specific binding was blocked with 5% skim milk (or 5% BSA when phospho-proteins were analyzed), and membranes were probed with primary antibodies specific to Nrf2 (#12721), HO-1 (#70081), IκBζ (mouse specific, #93726), IκBζ(#9244), ATF3 (#D2Y5W), IRAK1 (#4504; sensitivity of IRAK1 detection diminishes upon IRAK1 K63 ubiquitination), phospho-IKK (Ser176/180, #2697), p62/SQSTM1 (#5114), phospho-eIF2α (Ser51, #9721), eIF2α (#5324) from Cell Signaling; GAPDH (sc-25778), IκBα (sc-1643), ATF3 (sc-188), SDHA (sc-166909) from Santa Cruz; NQO1 (ab28947) from Abeam, followed by incubation with anti-rabbit-HRP (1:10,000; sc-2030) or anti-mouse-HRP (1:10,000; sc-2031) from Santa Cruz and Clarity western ECL substrate (Bio-Rad). Membranes were exposed to X-Ray films (Research Products International Corp.) and developed using SRX-101A film processor (Konica Minolta). GAPDH run on the same blot was used as loading control. After scanning of original films image brightness of some blots was adjusted and bands were cropped using ImageJ. Densitometry was performed using ImageJ.

[2] = tested on: IL6, IL12, IL1b, TNFα; test: Cytokine production in LPS-stimulated BMDMs (ELISA); assay type: cell-based, mouse
Experimental: as §1
Cytokines in cell supernatants were analyzed using DuoSet® ELISA kits according to manufacturer protocol (R&D Systems). The supernatants from BMDMs were diluted 1:4, from human blood monocytes 1:3.

[3] = tested on: IκBζ; test: Ikb-ζ protein in LPS-stimulated human monocytes (western blot); assay type: cell-based; conditions: human monocytes, DI 12 h, LPS 100 ng/ml
Experimental: as §2, with “Membranes were exposed to X-Ray films (Research Products International Corp.) and developed using SRX-101A film processor (Konica Minolta). GAPDH run on the same blot was used as loading control. After scanning of original films image brightness of some blots was adjusted and bands were cropped using ImageJ. Densitometry was performed using ImageJ.” left out
Blood from healthy donors was acquired from LRS chambers supplied by the Mississippi Valley Regional Blood Center. […] After extensive washes to allow removal of non-adherent cells, monocytes (>95% purity) were harvested, counted and 5×10^5 cells were plated per well in 24-well plates. […]

[4] = tested on: Regnase-1; test: Regnase-1 protein levels in BMDMs (western blot); assay type: cell-based, mouse; conditions: unstimulated macrophages, DI
Experimental: BMDM were prepared from 6- to 12-week-old mice as described 1 and cultured in RMPI-1640 medium supplemented with 10% fetal bovine serum (FBS), 2 mM L-glutamine, and 100 U/mL penicillin-streptomycin and mouse recombinant M-CSF ([…], Peprotech). For experiments, cells were seeded at concentration 10^6 cells/mL in tissue culture plates of various formats. […]
(§3) Cells were lysed in RIPA Lysis Buffer System (Santa Cruz) and heat-denatured at 95° C. for 5 min in reducing sample buffer (BioRad). […] Non-specific binding was blocked with 5% skim milk (or 5% BSA when phospho-proteins were analyzed), and membranes were probed with primary antibodies specific to Nrf2 (#12721), HO-1 (#70081), IκBζ (mouse specific, #93726), IκBζ(#9244), ATF3 (#D2Y5W), IRAK1 (#4504; sensitivity of IRAK1 detection diminishes upon IRAK1 K63 ubiquitination), phospho-IKK (Ser176/180, #2697), p62/SQSTM1 (#5114), phospho-eIF2α (Ser51, #9721), eIF2α (#5324) from Cell Signaling; GAPDH (sc-25778), IκBα (sc-1643), ATF3 (sc-188), SDHA (sc-166909) from Santa Cruz; NQO1 (ab28947) from Abeam, followed by incubation with anti-rabbit-HRP (1:10,000; sc-2030) or anti-mouse-HRP (1:10,000; sc-2031) from Santa Cruz and Clarity western ECL substrate (Bio-Rad). […]

[5] = tested on: STAT3; test: STAT3 activation in LPS-stimulated BMDMs (western blot); assay type: cell-based, mouse
Experimental: as §1, with “In some experiments BMDMs were treated with DI for 12 h and bafilomycin A (BafA, 100 nM, Sigma) or MG132 (10 μM, Selleckchem) were added 30 min before subsequent LPS stimulation.” left out
as §3

[6] = tested on: IκBζ target genes (Defb4, S100a7a, Lcn2, S100a9); test: IκBζ target gene expression in IL-17A-stimulated mouse keratinocytes (qPCR); assay type: cell-based; conditions: DI 12 h, IL-17A 4 h
Experimental: RNA from cultured cells was isolated using a Total RNA I kit (OMEGA). RNA from mouse ear skin was extracted using RNAeasy mini kit (Qiagen) after tissue disruption with sterile zirconium beads on a MagNA Lyser (Roche). Isolated RNA was reverse transcribed using AffinityScript Multi-Temp reverse transcriptase (Agilent Technologies) according to the manufacturer's protocol. Reactions were performed in 96-well plates using a SYBR Green PCR Master mix (Thermo Fisher Scientific) using a LightCycler® 96 or LightCycler® 480 (Roche Diagnostics). All assays were performed at least in duplicates, and reaction mixtures in 20 μL volumes (96-plate) or 10 μL volumes (384-plate) were processed under the following cycling conditions: initial 10 min denaturation at 95° C., followed by 40 cycles at 95° C. for 10 s, 60° C. for 1 min. Threshold cycle (CT) values for each sample were determined by automated threshold analysis. Expression levels of all mRNAs were normalized to reference gene Actb in BMDMs or to Rpl19 in mouse keratinocytes and tissue samples; to ACTB in human blood monocytes or RPLP0 in human keratinocytes. The relative increase in the expression level of a gene was normalized to the level of expression in unstimulated control cells in each experiment. IκBζ-dependent genes selected for analysis in macrophages were previously published. […]

`C=C(CC(=O)OC)C(=O)OC` [DI, dimethyl itaconate] was tested, and the “IκBζ protein levels upon DI treatment in Atf3−/− cells” value ([1]; Atf3−/− BMDMs, DI, LPS) was “restored IκBζ protein levels”, the “LPS-induced Ikb-ζ induction, protein level” value ([1]; BMDMs treated with compound 12 h, then LPS 100 ng/ml) was “almost complete inhibition; also recorded: completely abolished; also recorded: inhibited IκBζ induction” and the “effect on IκBζ/IL-6 in combination with BSO” value ([1]; BMDMs, compound plus BSO 500 μM, LPS) was “enhanced the inhibitory effect”. The “DI inhibition of Ikb-ζ induction in Nrf2-deficient cells” value ([1]; Nrf2 KO BMDMs, DI 250 μM 12 h, LPS) was “did not affect inhibition of Ikb-ζ induction; also recorded: did not alleviate”, the “IκBζ inhibition by DI in p62/SQSTM1- or HO-1-lacking macrophages” value ([1]; macrophages genetically lacking p62/SQSTM1 or HO-1) was “did not rescue IκBζ inhibition by DI” and the “IL-6 production in DI-treated Atf3−/− cells compared to WT” value ([2]; Atf3−/− BMDMs, DI, LPS 24 h) was “significantly increased IL-6 production”. For the same compound, the LPS-induced cytokine production ([2]; BMDMs pretreated 12 h, then LPS) was “down-regulates production of IL6, IL12, and IL1b, but not TNFα”, the “DI-mediated IL-6 inhibition in Nrf2-deficient BMDMs” value ([2]; Nrf2-deficient BMDMs, DI, LPS 4 h) was “did not alleviate” and the “LPS-induced Ikb-ζ protein levels” value [3] was “decreased Ikb-ζ protein levels; also recorded: completely abolished”. For the same compound, the Regnase-1 protein [4] was “up-regulated Regnase-1”, the “STAT3 activation (Y705 phosphorylation)” value ([5]; BMDMs, 12 h pretreatment) was “inhibits STAT3 activation” and the “inhibition of STAT3 activation, Nrf2 KO compared with WT” value ([5]; Nrf2 KO BMDMs, DI 250 μM 12 h) was “no differences in extent of inhibition of STAT3 activation”. For the same compound, the “expression of IκBζ target genes” value [6] was “downregulated”.
